Article PMC5177663 (Frontiers in Pharmacology, 2016)

Legend:
middle-aged mice = assay: contextual serial discrimination (CSD) task, contextual memory; assay type: in vivo, C57/Bl6 mice; settings: for effect on SCM scores as compared to vehicle: Experiment 1, middle-aged mice, 9 days oral; for strength of contextual memory (SCM) score (% correct responses - % interference responses): Experiment 2, middle-aged mice, NS vs vehicle
From the text: The memory task and apparatus has been fully described previously ([Chauveau et al., 2009]). The contextual serial discrimination (CSD) task is based on two successive discriminations in a four-hole board which can be retrieved with the help of specific temporal and contextual cues associated with each of them.
The acquisition phase took place in room A where animals learned two consecutive spatial discriminations (D1 and D2; Figure 1A) which differed by the color and texture of the floor and were separated by a 2-min delay interval. For both D1 and D2, 10 20-mg food pellets were available during the 6-min exploration sessions; for D2 specifically, the baited hole was consistently located in the opposite symmetrical hole. Environmental cues made of colored paper sheets were positioned at 1.00 m above the board. At the end of the acquisition phase, mice returned in the animal’s room for 24 h. Animals retained for the test phase in the present study for both Experiments 1 and 2 have eaten at least 7–8 pellets/10 during both acquisitions.
Mice were replaced on the D1 floor in the board without any pellet in the apparatus and were allowed to freely explore for 6 min during which the number of head-dips in each hole was counted. This allowed measures of the % of “correct responses” (head-dips into the hole previously baited on the same floor-context), the % of “interference responses” (head-dips into the hole previously baited at D2, on the other floor-context) (Figure 1B) and of the “strength” of “contextual memory” score (SCM) (% correct responses - % interference responses). Thus, since correct responses are based on the use of the internal context (color of the floor) and interferent responses are based on the use of spatial allocentric cues previously associated with the other floor, thus the trend of SCM score toward a positive difference represents the gain of internal contextual memory, at the expense of allocentric spatial one.
The two last administrations were delivered 1 h before the acquisition and test phases.
(§1) Independent groups of mice (N = 10 per group) were used. An additional group composed by young vehicle mice (4–5 months young-vehicles, N = 10) was added for determination of the aging effect on both memory and phosphorylated CREB immunoreactivities, as compared to middle-aged Vehicles. For the immunohistochemical study, animals submitted to D1 memory testing were compared to “naïve” mice isolated in the colony room (with N = 5 per group; Naïve condition) and that underwent the food deprivation procedure and drug treatments as behaving animals (Test condition).

[1] = tested on: acetylcholine extracellular levels; assay: intracerebral microdialysis, acetylcholine in mPFC and ventral hippocampus; assay type: in vivo, Wistar (Han) rats; settings: at 30 min
Experimental: The locomotor activity of the rats was recorded simultaneously during the sampling as a control method to assess a possible contribution of the handling stress and drug administration to microdialysis data.
Male Wistar (Han) rats, weighting about 265 g, were used for the experiment. At their arrival at facility, rats were housed in humidity and temperature controlled room on a 12h light/dark cycle (light on at 6:00 h) with water and food available ad libitum. Rats were anaesthetized with isoflurane and stereotaxically implanted with two guide cannula: one into the ventral hippocampus (vHPC: Interaural + 3.7 mm, Lateral + 4.8 mm, Ventral -3.8 mm providing the final -8.0 mm for the tip of the microdialysis probe) and the second into the medial prefrontal cortex (mPFC: Interaural + 12.2 mm, Lateral - 0.5 mm, Ventral -1.6 mm providing the final -5.6 mm for the tip of the microdialysis probe). After a recovery of 5 days, a microdialysis probe was inserted into the each respective guide cannula of awake rat. The probes were perfused at a constant flow-rate of 1 µl/min with sterile artificial CSF solution in the absence of an AChE inhibitor (148 mM NaCl, 4 mM KCl, 0.8 mM MgCl2, 1.4 CaCl2, 1.2 mM Na2HPO4, 0.3 mM NaH2PO4, pH 7.2). Following 120-min stabilization period, the samples were collected every 30 minutes. The first 3 samples (-90 to 0 min) were taken for determination of basal extracellular levels of ACh. […] After finalizing the experiment, the animals were sacrificed by an overdose of isoflurane and dislocation of the neck.
The levels of ACh in the microdialysates were determined by high-performance liquid chromatography (HPLC) linked to a postcolumn immobilized enzyme reactor followed by electrochemical detection. Briefly, the HPLC system (HTEC-500, Eicom Corp.) included a pulse-free microflow pump, a degasser and an amperometric detector equipped with a platinum electrode. The potential of the working electrode vs. Ag/AgCl ref. electrode was set to +0.45 V vs. an Ag/AgCl reference elctrode. Samples were injected by use of a CMA/200 Refrigerated Microsampler (CMA/Microdialysis). The chromatograms were recorded and integrated by use of a computerized data acquisition system (DataApex, Prague, Czech Republic). ACh was separated on a 150 x 2.0 I.D. mm narrow-bore column, packed with C18 polymer gel, 4 μm particle size. The enzyme reactor AC-ENZYMPAK II (Eicom Corp.) was used. The mobile phase was a 50 mM potassium hydrogen carbonate buffer containing 3.7 mM sodium 1-octanesulfonate, 0.13 mM EDTA-2Na, final pH 7.2. […] Determination of ACh levels in the groups of rats treated with drugs and vehicle was performed in blind conditions.

[2] = tested on: phosphorylated CREB (pCREB); assay: pCREB immunohistochemistry after behavioral testing; assay type: in vivo, C57/Bl6 mice; settings: test condition
Experimental: as §1
Thirty minutes after completion of the test session, mice were deeply anesthetized (Avertin, 10 mL/kg intraperitoneally i.p.), and perfused transcardially with an ice-cold solution of 4% paraformaldehyde in phosphate buffer (0.1 M, pH 7.4). After perfusion, brains were removed and post-fixed overnight in the same fixative at 4°C. Brains were then put in a sucrose solution (30% in Tris Buffer 0.1 M, pH 7.4) during 24 h. They were then frozen and cut in […] coronal free-floating sections with a freezing microtome (Leica) to proceed to immunochemistry.
Total CREB (tCREB) and phosphorylated CREB (pCREB) immunostainings were performed as described in full previously ([Vandesquille et al., 2013]; [Dominguez et al., 2014], [2016]). Countings were made in the following brain regions according to [Paxinos and Franklin (2001)] atlas: the CA1 of the dorsal (dCA1) and ventral (vCA1) hippocampus, the prelimbic cortex (PL), the dorsal striatum (St), the basolateral amygdala nucleus (BLA) and the medial septum nucleus (MS). Digital images were captured at 10X magnification using an Olympus (BX50) and an imaging analysis system (ImageJ®). At least six serial sections for each brain region were analyzed using a computerized image analysis system (Visiolab 2000®, Biocom, and V4.50). Quantification was expressed as mean number of positive nuclei per mm^2.

H3 receptors = tested on: H3 receptors; set-up: method as in Panayi et al., 2014; settings: rats, mice, monkeys memory paradigms; ref Panayi et al., 2014; cited from earlier work
mice = assay: primary observation (IRWIN) test; assay type: in vivo; settings: pharmacological doses, alone or in combination, data not shown
in vivo = assay: in vivo
Experimental: The sampling times are 30 min, 1, 2, 4, and 6 h. In each mouse, two time points of blood sampling were performed. Plasma was extracted from the blood sample by centrifugation (+4°C, 3000 g, 10 min) and stored at -80°C. Then, plasma samples were sent in dry ice to MDS (MDS Pharma Services, Switzerland) for the pharmacokinetic analysis.

[3] = middle-aged mice, Donepezil 0.3 mg/kg (ANOVA factor)

## COc1cc2c(cc1OC)C(=O)C(CC1CCN(Cc3ccccc3)CC1)C2 (centres unmarked) [Donepezil, reference compound]
middle-aged mice; Donepezil alone at all doses (0.1 and 0.3 mg/kg)
  effect on SCM scores as compared to vehicle: did not show significant effect
middle-aged mice; Donepezil 0.3 mg/kg alone
  strength of contextual memory (SCM) score (% correct responses - % interference responses): +7.48 ± 3.60
[1]; rat mPFC, Donepezil 0.1 mg/kg i.p.
  maximal increase of ACh levels: 175 % of predrug values
[1]; rat mPFC, Donepezil 0.3 mg/kg i.p.
  maximal increase of ACh levels: 216 % of predrug values
[1]; rat vHPC, Donepezil 0.1 mg/kg i.p.
  maximal increase of ACh levels: 180 % of predrug values
[1]; rat vHPC, Donepezil 0.3 mg/kg i.p.
  maximal increase of ACh levels: 207 % of predrug values
[2]; Donepezil alone (0.3 mg/kg) as compared to vehicle
  increase of pCREB expression in the MS: +174.3%
[2]; [3]
  effect on pCREB immunopositive cells in the MS: significant increase
  effect on pCREB immunopositive cells in the dCA1: significant increase

## NC(=O)c1ccc(OCCCN2CC3CCCC3C2)cc1 (centres unmarked) [S 38093]
H3 receptors
  mean pharmacological dose with procognitive properties: 0.3 mg/kg
middle-aged mice; S 38093 0.1 mg/kg alone
  effect on SCM scores as compared to vehicle: did not show significant effect
  strength of contextual memory (SCM) score (% correct responses - % interference responses): -14.3 ± 5.76
middle-aged mice; S 38093 1.0 mg/kg alone
  effect on SCM scores as compared to vehicle: did not show significant effect
middle-aged mice; S 38093 0.3 mg/kg alone
  strength of contextual memory (SCM) score (% correct responses - % interference responses): +5.19 ± 6.68
[1]; rat mPFC, S 38093 3 mg/kg i.p., n.s.
  maximal increase of ACh levels: 158 % of predrug values
[1]; rat mPFC, S 38093 10 mg/kg i.p.
  maximal increase of ACh levels: 234 % of predrug values
[1]; rat vHPC, S 38093 3 mg/kg i.p.
  maximal increase of ACh levels: 153 % of predrug values
[1]; rat vHPC, S 38093 10 mg/kg i.p.
  maximal increase of ACh levels: 184 % of predrug values
[2]; middle-aged mice, S 38093 at both doses (0.1 and 0.3 mg/kg)
  effect on pCREB immunopositive cells in the dCA1 and the MS: no significant effect
mice
  observable clinical signs: did not induce any observable clinical signs
In vivo; C57/Bl6, mouse, po, 0.1 mg/kg
  AUC: 9.56 ng·h/mL
  Cmax: 3.04 ng/mL
In vivo; C57/Bl6, mouse, po, 1 mg/kg
  Tl/2: 2.37 h
  AUC: 92.4 ng·h/mL
  Cmax: 55.6 ng/mL
In vivo; mouse
  plasma exposure when administered as a combination: no increase
